Assay results taken from article PMC4586081 (Journal of neuroscience research, 2008).

Experiments:
α3β2 nAChR = α3β2 nAChR (Rattus norvegicus, UniProt P04757+P12390); experiment: two-electrode voltage clamp, Xenopus oocytes, peak current; assay type: cell-based
α3β4 nAChR = α3β4 nAChR (Rattus norvegicus, UniProt P04757+P12392); experiment: as above; assay type: cell-based
Sequence of α3β4 nAChR (P04757 26-499): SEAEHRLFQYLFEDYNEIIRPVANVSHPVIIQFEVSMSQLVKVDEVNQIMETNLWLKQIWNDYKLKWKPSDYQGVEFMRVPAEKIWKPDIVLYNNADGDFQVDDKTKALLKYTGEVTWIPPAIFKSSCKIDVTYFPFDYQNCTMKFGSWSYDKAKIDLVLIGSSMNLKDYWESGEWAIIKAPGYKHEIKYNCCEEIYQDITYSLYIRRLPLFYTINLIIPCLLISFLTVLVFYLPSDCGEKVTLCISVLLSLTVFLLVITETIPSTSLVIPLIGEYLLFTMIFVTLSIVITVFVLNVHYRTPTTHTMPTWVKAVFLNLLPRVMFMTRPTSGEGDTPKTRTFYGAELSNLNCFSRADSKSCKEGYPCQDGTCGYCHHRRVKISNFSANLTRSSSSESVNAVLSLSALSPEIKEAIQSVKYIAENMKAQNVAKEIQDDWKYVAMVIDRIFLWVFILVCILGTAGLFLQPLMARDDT
Sequence of α3β4 nAChR (P12392 21-495): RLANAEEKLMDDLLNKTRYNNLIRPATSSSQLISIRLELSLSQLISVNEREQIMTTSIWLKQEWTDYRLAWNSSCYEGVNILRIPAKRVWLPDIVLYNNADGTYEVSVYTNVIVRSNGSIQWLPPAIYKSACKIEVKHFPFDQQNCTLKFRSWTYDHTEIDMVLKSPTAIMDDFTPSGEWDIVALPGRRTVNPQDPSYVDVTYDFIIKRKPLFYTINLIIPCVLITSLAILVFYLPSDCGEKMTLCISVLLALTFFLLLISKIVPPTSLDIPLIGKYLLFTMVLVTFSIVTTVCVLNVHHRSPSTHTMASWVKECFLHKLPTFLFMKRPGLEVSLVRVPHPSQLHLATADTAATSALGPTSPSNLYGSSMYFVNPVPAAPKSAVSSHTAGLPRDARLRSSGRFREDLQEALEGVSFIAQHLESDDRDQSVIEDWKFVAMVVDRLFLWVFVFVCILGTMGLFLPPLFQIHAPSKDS

Sequence of α3β2 nAChR (P04757 26-499): as the sequence (P04757 26-499) above
Sequence of α3β2 nAChR (P12390 25-500): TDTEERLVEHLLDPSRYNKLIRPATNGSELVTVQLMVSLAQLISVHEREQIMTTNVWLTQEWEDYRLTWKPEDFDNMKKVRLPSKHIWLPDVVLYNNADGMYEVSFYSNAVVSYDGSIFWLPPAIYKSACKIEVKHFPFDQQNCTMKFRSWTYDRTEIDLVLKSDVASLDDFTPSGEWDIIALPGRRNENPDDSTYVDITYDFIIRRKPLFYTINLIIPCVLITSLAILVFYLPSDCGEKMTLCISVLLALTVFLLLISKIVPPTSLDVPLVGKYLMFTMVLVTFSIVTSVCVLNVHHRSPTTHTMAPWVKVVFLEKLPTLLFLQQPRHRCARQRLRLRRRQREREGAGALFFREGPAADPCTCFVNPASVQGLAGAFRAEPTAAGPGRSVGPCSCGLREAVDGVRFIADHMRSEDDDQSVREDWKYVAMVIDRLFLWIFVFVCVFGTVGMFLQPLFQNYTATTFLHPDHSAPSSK

C[N+]1(C)CCN(c2ccccc2)CC1 [DMPP]
EC50 (α3β2 nAChR): 55 µM
EC50 (α3β4 nAChR): 58 µM
